The source made the active and inactive calls.

This is an account of results in ChEMBL document CHEMBL1201862, “PubChem BioAssay data set” (2004).

Assay [1] deals with T1, Beta-lactamase (Pseudomonas aeruginosa, UniProt Q79MP6). The assay is described as follows: […] counterscreen for selective VIM-2 inhibitors: dose response biochemical high throughput screening assay to identify inhibitors of IMP-1 metallo-beta-lactamase.
Assay [2] concerns the target T1, Beta-lactamase. The assay is described as follows: inhibition of IMP-1 beta-lactamase activity – biochemical, epi-absorbance, selectivity assay for VIM-2 inhibitor project, dose response (AID 1920).
In assay [3] the target is T2, Beta-lactamase (Salmonella choleraesuis (strain SC-B67), UniProt Q5J463). The assay is described as follows: Epi-absorbance-based counterscreen for selective VIM-2 inhibitors: dose response biochemical high throughput screening assay to identify inhibitors of TEM-1 serine-beta-lactamase.
Assay [4] addresses Fructose-bisphosphate aldolase (Mycobacterium tuberculosis, UniProt P9WQA3). The assay is described as follows: Fluorescence-based biochemical high throughput dose response assay for inhibitors of the fructose-bisphosphate aldolase (FBA) of M. tuberculosis. Format: functional.
Assay [5] in a line: luciferase reporter signal suppression in cells – H4 neuroglioma cells, luminescence, dose response (AID 1990). Format: functional, cell-based.
The target in assay [6] is T3, Voltage-gated N-type calcium channel alpha-1B subunit/Amyloid beta A4 precursor protein-binding family A member 1 (Homo sapiens, UniProt Q00975+Q02410). Format: protein assay.
The nature of assay [7]: Luminescence Cell-Based Dose Response HTS to Identify Inhibitors of 5'UTR Stem-Loop Driven Prion Protein mRNA Translation in H4 Neuroglioblastoma Cells. [Related pubchem assays: 1827 (Project Summary), 1813 (Primary HTS)]. Format: functional.
Assay [8] in a line: alpha-synuclein stem-loop luciferase translation blockers – H4 neuroglioma cells, luminescence, confirmation (AID 1988). In kind it is functional, cell-based.
Assay [9] is described as follows: viability loss in HEK293T cells – cell-based, cherry-picks, cytotoxicity control for HIV Vif inhibitor project, dose response (AID 652208). In kind it is functional.
Assay [10] has as its target T3, Voltage-gated N-type calcium channel alpha-1B subunit/Amyloid beta A4 precursor protein-binding family A member 1. In kind it is protein assay. This is another data set of the same source.
Assay [11] has as its target T1, Beta-lactamase.
Assay [12] has as its target T2, Beta-lactamase.
The nature of assay [13]: Counterscreen for AddAB inhibitors: absorbance-based bacterial cell-based high throughput dose response assay for inhibitors of bacterial viability. [Related pubchem assays (depositor defined):AID435030, AID449728, AID449731, AID488942, AID488955, AID488956]. Format: functional. In general terms: A counterscreen serves to expose hits that act by an unwanted route or on another target.

The target of assay [14] is T4, Exodeoxyribonuclease V (Escherichia coli (strain K12), UniProt P04993+P07648+P08394).
T4 sequence (P04993 whole entry): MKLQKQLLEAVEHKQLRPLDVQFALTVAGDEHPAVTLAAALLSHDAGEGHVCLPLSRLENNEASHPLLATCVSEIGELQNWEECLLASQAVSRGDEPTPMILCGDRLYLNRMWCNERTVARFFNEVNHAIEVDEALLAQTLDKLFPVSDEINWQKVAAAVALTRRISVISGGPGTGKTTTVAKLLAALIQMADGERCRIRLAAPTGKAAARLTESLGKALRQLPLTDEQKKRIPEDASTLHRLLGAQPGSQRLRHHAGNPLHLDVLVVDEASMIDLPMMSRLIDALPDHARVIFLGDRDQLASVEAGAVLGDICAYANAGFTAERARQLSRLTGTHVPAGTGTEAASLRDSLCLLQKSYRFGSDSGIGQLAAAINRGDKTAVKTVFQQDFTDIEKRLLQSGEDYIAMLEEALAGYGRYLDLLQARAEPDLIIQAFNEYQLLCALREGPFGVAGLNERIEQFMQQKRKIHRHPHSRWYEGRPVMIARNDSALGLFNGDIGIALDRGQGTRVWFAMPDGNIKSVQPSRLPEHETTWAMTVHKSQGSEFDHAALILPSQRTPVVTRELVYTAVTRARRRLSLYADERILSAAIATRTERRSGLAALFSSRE
T4 sequence (P07648 whole entry): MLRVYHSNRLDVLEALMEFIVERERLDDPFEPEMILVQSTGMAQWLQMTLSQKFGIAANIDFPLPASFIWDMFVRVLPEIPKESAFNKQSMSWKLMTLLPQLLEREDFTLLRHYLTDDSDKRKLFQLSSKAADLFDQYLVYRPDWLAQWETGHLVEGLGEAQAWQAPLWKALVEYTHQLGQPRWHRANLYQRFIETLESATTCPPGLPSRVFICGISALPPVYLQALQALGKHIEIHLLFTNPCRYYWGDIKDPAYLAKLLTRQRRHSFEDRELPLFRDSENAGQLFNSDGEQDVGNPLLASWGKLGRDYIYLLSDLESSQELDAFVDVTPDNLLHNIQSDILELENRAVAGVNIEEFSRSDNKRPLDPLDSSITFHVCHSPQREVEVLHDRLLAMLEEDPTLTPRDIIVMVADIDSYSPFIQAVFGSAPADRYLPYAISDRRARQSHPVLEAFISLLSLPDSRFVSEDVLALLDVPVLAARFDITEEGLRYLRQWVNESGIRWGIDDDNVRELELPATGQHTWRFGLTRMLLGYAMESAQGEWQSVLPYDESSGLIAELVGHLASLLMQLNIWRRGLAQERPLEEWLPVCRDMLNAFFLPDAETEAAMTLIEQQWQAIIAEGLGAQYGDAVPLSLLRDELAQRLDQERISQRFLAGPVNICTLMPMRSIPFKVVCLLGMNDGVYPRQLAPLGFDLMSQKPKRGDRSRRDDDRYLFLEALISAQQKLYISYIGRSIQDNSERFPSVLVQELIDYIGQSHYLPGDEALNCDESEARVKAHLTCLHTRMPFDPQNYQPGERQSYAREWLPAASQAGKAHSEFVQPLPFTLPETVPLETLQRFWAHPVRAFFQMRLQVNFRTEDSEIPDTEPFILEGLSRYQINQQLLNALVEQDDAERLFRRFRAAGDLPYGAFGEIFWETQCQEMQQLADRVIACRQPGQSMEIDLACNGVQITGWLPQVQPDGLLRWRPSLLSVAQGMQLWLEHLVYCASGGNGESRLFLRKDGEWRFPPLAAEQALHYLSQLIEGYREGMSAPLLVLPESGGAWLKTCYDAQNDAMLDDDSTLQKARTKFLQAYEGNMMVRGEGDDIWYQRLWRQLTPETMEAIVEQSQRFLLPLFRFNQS
T4 sequence (P08394 whole entry): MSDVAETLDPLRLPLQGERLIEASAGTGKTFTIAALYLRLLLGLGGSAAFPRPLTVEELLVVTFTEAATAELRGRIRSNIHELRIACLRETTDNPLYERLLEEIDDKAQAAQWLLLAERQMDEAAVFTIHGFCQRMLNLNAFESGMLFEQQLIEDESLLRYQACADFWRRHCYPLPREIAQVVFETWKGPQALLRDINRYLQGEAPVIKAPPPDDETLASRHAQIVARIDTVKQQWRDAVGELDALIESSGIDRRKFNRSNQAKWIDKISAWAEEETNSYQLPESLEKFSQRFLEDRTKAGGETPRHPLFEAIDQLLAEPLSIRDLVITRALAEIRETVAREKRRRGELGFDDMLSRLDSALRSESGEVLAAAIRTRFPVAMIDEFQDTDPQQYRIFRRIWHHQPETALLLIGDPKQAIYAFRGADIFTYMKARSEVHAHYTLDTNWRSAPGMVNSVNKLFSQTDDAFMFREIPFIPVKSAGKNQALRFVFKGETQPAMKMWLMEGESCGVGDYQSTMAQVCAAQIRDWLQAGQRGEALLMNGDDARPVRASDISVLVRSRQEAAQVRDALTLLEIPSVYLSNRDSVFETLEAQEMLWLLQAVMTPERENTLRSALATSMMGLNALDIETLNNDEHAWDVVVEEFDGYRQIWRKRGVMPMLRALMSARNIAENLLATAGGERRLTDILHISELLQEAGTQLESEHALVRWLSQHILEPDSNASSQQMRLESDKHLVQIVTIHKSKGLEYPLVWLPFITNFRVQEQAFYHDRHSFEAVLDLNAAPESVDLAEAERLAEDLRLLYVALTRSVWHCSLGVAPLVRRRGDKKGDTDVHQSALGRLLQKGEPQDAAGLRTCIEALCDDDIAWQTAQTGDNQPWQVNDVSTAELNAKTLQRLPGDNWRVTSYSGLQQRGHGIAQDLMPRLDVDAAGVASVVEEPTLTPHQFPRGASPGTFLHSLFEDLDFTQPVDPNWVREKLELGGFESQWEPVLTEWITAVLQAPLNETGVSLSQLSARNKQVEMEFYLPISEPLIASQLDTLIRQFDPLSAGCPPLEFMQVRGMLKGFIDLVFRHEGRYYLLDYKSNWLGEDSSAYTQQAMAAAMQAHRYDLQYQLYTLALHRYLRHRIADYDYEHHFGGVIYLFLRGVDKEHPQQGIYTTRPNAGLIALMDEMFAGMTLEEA
The assay is described as follows: RecBCD inhibition via phage-restricted bacterial growth – absorbance, V66 E. coli, mutant T4 phage, counter-screen for AddAB inhibitor project, dose response (AID 492957). Format: functional, cell-based, Escherichia coli str. K-12 substr. MG1655.

In assay [15] the target is Albumin (Bos taurus, UniProt P02769). The assay is described as follows: Counterscreen for inhibitors of T-cell receptor (TCR)-CD3 interaction: Fluorescence-based biochemical high throughput dose response assay to identify inhibitors of T-cell receptor (TCR)-CD3 interaction using a TAMRA-labeled BSA probe. Format: functional.
Assay [16] can be described thus: intracellular Trypanosoma cruzi inhibitors in host cells – cell-based, plate reader, cherry-pick samples, set 3, dose response (AID 651818).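 Note: compounds incubated with infected cells for about four days.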 Format: functional.
The nature of assay [17]: HEK293 Cytotoxicity Assay Measured in Cell-Based System Using Plate Reader - 7071-01_Inhibitor_Dose_CherryPick_Activity_Set2. In kind it is functional.
Assay [18] relates to HeLa. The assay is described as follows: viability loss in HeLa cells – cell-based, ATP luminescence, cherry-pick samples, cytotoxicity control, dose response (AID 687004). In kind it is functional. As to conditions: Homo sapiens.
Assay [19] has as its system HEK293. The assay is described as follows: viability loss in HEK293T cells – cell-based, ATP luminescence, cherry-pick samples, cytotoxicity control, dose response (AID 687005).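 Note: cells exposed to compound for 48 hours.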 Format: functional. As to conditions: Homo sapiens.
Assay [20] deals with T5, Scavenger receptor class B member 1 (Mus musculus, UniProt Q61009). The assay is described as follows: mouse SR-BI DiI-HDL transfer blockers – ldlA[mSR-BI] CHO cells, fluorescence plate reader, dry powder, set 9, dose response (AID 623880). Format: functional, cell-based.
Assay [21] deals with T5, Scavenger receptor class B member 1. The assay is described as follows: blockers of DiI-HDL lipid transfer via SR-BI – cell-based, ldlA[mSR-BI] CHO, DiI fluorescence, dry powder, set 10, dose response (AID 624029). In kind it is functional.
The nature of assay [22]: cell viability loss, ATP luminescence – CellTiter-Glo, 24 h, powder samples, set 7, cytotoxicity control for SR-BI HDL uptake inhibitor project, dose response (AID 624026). Format: functional, cell-based. Background: ATP-based viability assays read luminescence as a measure of living cells.
Assay [23] deals with Steroidogenic factor 1 (Homo sapiens, UniProt Q13285). The assay is described as follows: Counterscreen for inverse agonists of the liver receptor homolog-1 (LRH-1; NR5A2): Luminescence-based cell-based high throughput dose response assay to identify inverse agonists of the Steroidogenic Factor 1 Nuclear Receptor (SF1; NR5A1). In kind it is functional.
For assay [24], the target named is Nuclear receptor subfamily 5 group A member 2 (Homo sapiens, UniProt O00482). Format: functional, cell-based.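 Note: HEK293T cells transfected with LRH-1 and a StAR promoter luciferase reporter; potency for inhibitors that lower LRH-1 driven reporter light.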
Assay [25] in a line: nonselective StAR promoter luciferase inhibitors – cell-based, luminescence, luciferase reporter, counter-screen for LRH-1 inverse agonist project, dose response (AID 651969). In kind it is functional. (In general: A reporter such as luciferase makes a cellular process visible.)

T1 sequence (Q79MP6 whole entry): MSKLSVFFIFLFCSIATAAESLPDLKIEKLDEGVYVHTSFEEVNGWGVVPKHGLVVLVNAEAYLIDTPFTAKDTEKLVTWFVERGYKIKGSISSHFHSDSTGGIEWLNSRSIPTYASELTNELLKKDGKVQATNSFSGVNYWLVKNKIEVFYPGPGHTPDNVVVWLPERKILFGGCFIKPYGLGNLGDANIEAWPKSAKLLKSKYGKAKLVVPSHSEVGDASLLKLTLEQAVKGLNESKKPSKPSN
T5 sequence (Q61009 whole entry): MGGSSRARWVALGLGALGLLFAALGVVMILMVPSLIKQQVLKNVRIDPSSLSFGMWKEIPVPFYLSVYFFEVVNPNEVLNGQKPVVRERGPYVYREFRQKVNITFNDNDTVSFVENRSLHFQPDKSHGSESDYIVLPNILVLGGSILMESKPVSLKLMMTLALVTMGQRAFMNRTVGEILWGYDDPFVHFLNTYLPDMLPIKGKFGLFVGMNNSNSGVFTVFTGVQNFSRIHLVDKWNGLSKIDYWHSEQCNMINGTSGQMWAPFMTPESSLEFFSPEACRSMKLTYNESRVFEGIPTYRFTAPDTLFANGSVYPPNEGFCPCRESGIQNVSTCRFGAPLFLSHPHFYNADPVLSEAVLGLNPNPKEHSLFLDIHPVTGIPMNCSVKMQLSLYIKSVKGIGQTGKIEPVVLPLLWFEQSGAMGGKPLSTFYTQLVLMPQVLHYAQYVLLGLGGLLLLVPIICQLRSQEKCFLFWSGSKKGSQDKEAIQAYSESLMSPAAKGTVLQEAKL
T3 sequence (Q00975 whole entry): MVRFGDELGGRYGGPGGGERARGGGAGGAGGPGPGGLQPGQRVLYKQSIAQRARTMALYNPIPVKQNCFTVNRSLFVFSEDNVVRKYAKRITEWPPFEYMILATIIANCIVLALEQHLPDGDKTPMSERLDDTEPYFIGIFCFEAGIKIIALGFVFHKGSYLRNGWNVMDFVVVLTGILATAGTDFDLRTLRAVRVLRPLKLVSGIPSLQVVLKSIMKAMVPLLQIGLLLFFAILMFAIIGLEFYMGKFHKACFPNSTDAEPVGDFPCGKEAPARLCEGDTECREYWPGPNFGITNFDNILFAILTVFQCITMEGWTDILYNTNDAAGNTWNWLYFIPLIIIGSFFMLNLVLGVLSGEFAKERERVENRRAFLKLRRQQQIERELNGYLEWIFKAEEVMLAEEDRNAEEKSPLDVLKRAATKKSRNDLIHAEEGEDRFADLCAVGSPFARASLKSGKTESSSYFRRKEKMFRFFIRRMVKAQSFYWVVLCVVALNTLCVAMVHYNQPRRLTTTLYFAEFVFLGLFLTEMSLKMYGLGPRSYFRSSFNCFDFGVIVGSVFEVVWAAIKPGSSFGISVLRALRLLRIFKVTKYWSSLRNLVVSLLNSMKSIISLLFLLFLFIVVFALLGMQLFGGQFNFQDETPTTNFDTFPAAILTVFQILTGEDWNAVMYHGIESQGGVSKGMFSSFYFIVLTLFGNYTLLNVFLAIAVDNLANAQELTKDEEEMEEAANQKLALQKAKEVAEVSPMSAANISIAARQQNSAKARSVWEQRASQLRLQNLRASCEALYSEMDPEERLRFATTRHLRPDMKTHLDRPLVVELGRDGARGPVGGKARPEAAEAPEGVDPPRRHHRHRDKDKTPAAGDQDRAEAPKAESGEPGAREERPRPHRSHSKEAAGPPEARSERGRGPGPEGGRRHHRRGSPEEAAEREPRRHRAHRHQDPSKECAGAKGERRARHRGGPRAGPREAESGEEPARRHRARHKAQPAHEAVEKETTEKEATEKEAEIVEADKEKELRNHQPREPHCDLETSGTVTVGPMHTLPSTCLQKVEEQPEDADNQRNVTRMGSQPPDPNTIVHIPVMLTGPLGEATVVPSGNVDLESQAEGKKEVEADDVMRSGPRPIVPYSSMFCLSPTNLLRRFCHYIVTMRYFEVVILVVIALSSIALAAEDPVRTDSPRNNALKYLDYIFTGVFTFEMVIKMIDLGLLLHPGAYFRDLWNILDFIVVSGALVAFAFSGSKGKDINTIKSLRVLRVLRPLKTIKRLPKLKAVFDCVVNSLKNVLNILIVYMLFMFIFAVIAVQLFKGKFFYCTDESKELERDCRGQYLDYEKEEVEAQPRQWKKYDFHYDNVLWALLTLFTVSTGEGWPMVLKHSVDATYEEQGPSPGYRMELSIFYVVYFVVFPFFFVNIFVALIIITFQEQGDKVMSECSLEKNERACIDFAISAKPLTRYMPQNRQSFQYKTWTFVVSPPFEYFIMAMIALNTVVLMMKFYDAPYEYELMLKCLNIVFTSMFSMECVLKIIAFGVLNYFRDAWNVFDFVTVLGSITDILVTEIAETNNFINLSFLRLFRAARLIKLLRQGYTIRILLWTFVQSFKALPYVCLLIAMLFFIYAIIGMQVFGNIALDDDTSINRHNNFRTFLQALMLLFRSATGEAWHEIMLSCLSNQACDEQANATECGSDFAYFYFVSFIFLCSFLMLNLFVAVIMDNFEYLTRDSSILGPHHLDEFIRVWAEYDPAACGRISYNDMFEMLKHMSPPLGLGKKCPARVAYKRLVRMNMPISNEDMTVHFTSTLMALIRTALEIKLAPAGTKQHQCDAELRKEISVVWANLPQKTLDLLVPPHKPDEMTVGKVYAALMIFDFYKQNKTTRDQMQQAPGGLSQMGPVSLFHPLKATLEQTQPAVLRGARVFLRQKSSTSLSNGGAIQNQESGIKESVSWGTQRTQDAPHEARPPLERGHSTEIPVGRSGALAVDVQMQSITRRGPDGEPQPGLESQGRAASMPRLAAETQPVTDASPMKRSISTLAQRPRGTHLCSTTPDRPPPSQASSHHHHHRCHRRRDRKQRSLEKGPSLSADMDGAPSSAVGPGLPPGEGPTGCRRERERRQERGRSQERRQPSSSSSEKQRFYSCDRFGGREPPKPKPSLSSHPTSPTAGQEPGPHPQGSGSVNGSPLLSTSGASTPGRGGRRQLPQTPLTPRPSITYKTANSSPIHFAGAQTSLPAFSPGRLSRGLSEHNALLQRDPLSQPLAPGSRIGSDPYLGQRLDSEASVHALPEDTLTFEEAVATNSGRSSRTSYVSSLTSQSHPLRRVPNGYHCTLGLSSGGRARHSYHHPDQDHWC
T3 sequence (Q02410 whole entry): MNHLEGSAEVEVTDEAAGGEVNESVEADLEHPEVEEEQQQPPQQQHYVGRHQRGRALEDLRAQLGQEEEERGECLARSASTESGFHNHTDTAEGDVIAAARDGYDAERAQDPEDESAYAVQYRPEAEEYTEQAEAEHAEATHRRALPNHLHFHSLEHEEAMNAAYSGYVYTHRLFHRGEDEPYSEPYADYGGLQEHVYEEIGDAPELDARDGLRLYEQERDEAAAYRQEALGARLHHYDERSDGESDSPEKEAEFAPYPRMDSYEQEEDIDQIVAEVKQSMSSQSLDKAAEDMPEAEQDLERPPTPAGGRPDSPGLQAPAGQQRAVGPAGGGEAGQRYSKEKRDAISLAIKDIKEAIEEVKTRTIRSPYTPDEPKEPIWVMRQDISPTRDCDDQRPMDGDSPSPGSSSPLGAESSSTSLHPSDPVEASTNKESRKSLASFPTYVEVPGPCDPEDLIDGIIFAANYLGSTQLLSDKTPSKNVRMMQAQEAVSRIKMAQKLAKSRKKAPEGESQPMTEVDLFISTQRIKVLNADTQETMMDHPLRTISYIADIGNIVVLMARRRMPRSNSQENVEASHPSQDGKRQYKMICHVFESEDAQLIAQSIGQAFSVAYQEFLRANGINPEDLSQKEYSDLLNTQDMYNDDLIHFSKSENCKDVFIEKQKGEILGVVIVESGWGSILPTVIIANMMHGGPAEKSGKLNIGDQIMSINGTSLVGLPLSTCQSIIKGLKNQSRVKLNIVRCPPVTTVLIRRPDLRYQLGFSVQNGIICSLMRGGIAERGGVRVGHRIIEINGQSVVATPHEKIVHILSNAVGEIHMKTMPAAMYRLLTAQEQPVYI
T2 sequence (Q5J463 whole entry): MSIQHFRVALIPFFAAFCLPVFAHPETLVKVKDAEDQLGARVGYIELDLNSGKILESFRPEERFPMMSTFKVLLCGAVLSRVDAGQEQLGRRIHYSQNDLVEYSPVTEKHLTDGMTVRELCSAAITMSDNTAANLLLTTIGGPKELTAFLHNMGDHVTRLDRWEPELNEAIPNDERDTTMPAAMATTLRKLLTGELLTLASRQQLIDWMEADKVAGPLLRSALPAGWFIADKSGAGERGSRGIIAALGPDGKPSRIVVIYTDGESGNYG
Chain of Nuclear receptor subfamily 5 group A member 2 (O00482 whole entry): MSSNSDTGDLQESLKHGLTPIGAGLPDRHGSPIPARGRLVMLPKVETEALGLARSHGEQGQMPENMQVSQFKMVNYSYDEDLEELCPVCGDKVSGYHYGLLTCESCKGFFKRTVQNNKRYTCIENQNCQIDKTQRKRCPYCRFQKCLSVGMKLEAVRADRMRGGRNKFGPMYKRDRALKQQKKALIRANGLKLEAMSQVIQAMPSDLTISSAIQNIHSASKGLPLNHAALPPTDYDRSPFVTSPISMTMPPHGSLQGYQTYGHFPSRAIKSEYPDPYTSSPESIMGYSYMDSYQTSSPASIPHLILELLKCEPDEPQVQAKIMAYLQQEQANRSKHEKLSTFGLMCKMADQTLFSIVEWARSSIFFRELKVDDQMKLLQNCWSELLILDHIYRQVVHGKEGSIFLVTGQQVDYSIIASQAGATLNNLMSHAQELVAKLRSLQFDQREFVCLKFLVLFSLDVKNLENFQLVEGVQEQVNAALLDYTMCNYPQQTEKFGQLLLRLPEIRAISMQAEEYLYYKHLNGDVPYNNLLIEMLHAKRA

In the case of `CC(=O)c1ccc(-c2ccc(Cn3c(C)nc4cc(N)c(C)nc43)cc2)cc1`, the IC50 in assay [1], in [2] and in [3] was > 59.6 µM (inactive) in each case.

In the case of `CCCNC(=O)c1c(N)n(-c2ccc(S(N)(=O)=O)cc2)c2nc3ccccc3nc12`, in [4], the IC50 (commonly the concentration that gives 50% inhibition) is 0.673 µM (active).

As to `CCOC(=O)c1cc(-c2ccccc2)sc1NC(=O)COC(=O)c1cccc(S(N)(=O)=O)c1`, the EC50 (usually the concentration at which the effect is half-maximal) in [5] was 13.4 µM (active); in [7] it was > 120 µM (not active); in [8], 12.8 µM (active). Also, the values for the IC50 in assay [6] and in assay [10] were 4.51 µM (active) and > 50 µM (inactive), respectively. Moreover, the AC50 (usually the concentration at which the activity in the assay is half-maximal) in assay [9] is 21.3 µM (active).

Regarding `CCN(CC)c1ccc2cc(C=O)c(=O)oc2c1`, the IC50 was 57.9 µM (inactive) in assay [11] and 26.7 µM (inactive) in assay [12].

With `COc1ccc(/C=C2\SC(=O)N(CC(=O)NNC(=O)c3ccccc3O)C2=O)cc1OC`, the values for the IC50 in assay [13], in [14] and in assay [15] were > 119 µM (inactive), > 119 µM (inactive) and > 94.1 µM (inactive), respectively.

Take `C[C@H](CO)N1C[C@H](C)[C@H](CN(C)Cc2ccc(-c3ccccc3)cc2)Oc2c(NC(=O)c3ccncc3)cccc2C1=O`: the AC50 is 0.08 µM (active) in assay [16], 14.2 µM (active) in assay [17], > 52 µM (inactive) in assay [18] and 14.2 µM (active) in [19].

Turning to `CC(C)(C)OC(=O)N1CCN(c2ccc(NC(=O)c3cc([N+](=O)[O-])ccc3Cl)cc2)CC1`, the AC50 in assay [20] was 0.503 µM (active); in assay [21], 0.953 µM (active); in assay [22] it was > 70 µM (inactive).

Regarding `COc1cc(/C=N/n2nnnc2N)ccc1OCc1c(C)no[n+]1[O-]`, the values for the IC50 in assay [23], in assay [24] and in assay [25] were 6.23 µM (active), 12.4 µM (inactive) and 35.9 µM (inactive), respectively.
